In US11458138B2 (Novartis AG, priority 2017, dated 2022) one finds IC50 and EC50 data, which are given here for 28 compounds.

Assay [1] concerns the target Human LATS1 kinase domain protein (Homo sapiens (Human), UniProt O95835). The experiment in a line: LATS1 Biochemical Caliper Assay (Compound Examples 291-335). The note with it: Caliper EZ Reader. The method, then: The LATS1 biochemical Caliper assay was performed as following.
Human LATS1 kinase domain protein was purchased from Carnabio (catalogue number 01-123; lot 15CBS-0098D). Human LATS1, catalytic domain [589-1130(end) amino acids of accession number NP_004681.1] was co-expressed as N-terminal GST-fusion protein (90 kDa) with human His-tagged MOBKL1A [1-216(end) amino acids of accession number NP_775739.1] using baculovirus expression system. GST-LATS1 was purified by using glutathione sepharose chromatography. The substrate (Fluo-SGKtide; Peptide for LATS1; lot BS-41067) has the following sequence: 5-Fluo-Nva-[…]-amide (SEQ ID NO: 27) x TFA and was purchased from Biosyntan.
The reaction is performed in reaction buffer containing 50 mM Hepes pH 7,5; 0.02% Tween20; 0.02% BSA; 1 mM DTT; 10 uM Na3VO4 and 10 mM beta-Glycerolphosphat and fresh added 1 mM MgCl2 and qsp H2O.
The substrate solution (2× conc.) in Reaction Buffer contains 300 μM ATP and 4 μM Fluo-SGKtide.
The kinase solution (2× conc.) in Reaction Buffer contains 20 nM LATS1 kinase. 4.5 μL of 2× conc. Kinase solution, 50 nL of 1.8 mM compounds and 4.5 μL of substrate solution were added into 384-well plates black small volume from Greiner and incubated at 32° C. for 1 hour. 15 μL of stop buffer containing 100 mM Hepes pH 7,5; 5% DMSO; 0.1% Coating reagent; 10 mM EDTA and 0.02% Brij35 and qsp H2O to each well to terminate the reaction.
Substrates and products were electrophoretically separated using the microfluidic-based Caliper EZ Reader System (Caliper Life Sciences) using a 12 sipper chip (cat 760404). The separation takes place in Coating Buffer (idem Stop buffer) and containing 0.1% Coating reagent CR3 and 0.5% coating reagent CR8 (Perkin Elmer).
Plates were read using a LED with an excitation at 488 nm and a detection at 520 nm to 5 quantify the fluorescence intensity.

For assay [2], the system named is YAP nuclear translocation in HaCaT cells. The assay can be described thus: YAP Translocation Assay (HaCaT Cells). The format is cell-based, human. Conditions: Homo sapiens, 24 hours. In outline: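 HaCaT cells (20,000/well) in DMEM + 10% FBS were plated overnight at 37° C, then exposed to compound for 24 h at 37° C. Cells were fixed with PFA, permeabilized with 0.1% Triton/1.5% BSA and imaged by high-content imaging.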

Assay [3] has as its system Phospho-YAP (Ser127) in JHH-5 cells. The assay can be described thus: pYAP HTRF Assay (JHH-5 cells). The format is cell-based. The note with it: 2 hours. In short, it runs like this:
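JHH-5 cells (24000/well) cultured 24 h at 37 °C in William's E with 10% FBS, then exposed to compounds for 2 h at 37 °C. After lysis, pYAP d2/cryptate antibodies incubated 18 h at room temperature; HTRF ratio 665/620 nm ×10000.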
(TR-FRET usually uses a lanthanide donor and a delayed reading to cut background.)

Assay [4] deals with Phospho-YAP (SER127) in HaCaT cells. The assay can be described thus: pYAP HTRF Assay (HaCaT Cells). It counts as cell-based, human. The note with it: Homo sapiens, 2 hours. In short, it runs like this: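 HaCaT cells at 5500 cells/well were cultured 48 hours at 37° C, then treated with compound for 2 hours. Phospho-YAP (Ser127) was detected by HTRF after an overnight (20 hrs) room-temperature incubation, read as the 665 nm/620 nm ratio.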

Assay [5] has as its target LATS1 (Homo sapiens (Human), UniProt O95835). The experiment in a line: LATS1 biochemical assay (Table 1A, Compound Examples 1-290; method in the earlier part).

SMILES strings stand for the structures. pEC50, pIC50: −log10 of the molar value.

Human LATS1 kinase domain protein, sequence (O95835 whole entry, looked up, the tested form may be a part): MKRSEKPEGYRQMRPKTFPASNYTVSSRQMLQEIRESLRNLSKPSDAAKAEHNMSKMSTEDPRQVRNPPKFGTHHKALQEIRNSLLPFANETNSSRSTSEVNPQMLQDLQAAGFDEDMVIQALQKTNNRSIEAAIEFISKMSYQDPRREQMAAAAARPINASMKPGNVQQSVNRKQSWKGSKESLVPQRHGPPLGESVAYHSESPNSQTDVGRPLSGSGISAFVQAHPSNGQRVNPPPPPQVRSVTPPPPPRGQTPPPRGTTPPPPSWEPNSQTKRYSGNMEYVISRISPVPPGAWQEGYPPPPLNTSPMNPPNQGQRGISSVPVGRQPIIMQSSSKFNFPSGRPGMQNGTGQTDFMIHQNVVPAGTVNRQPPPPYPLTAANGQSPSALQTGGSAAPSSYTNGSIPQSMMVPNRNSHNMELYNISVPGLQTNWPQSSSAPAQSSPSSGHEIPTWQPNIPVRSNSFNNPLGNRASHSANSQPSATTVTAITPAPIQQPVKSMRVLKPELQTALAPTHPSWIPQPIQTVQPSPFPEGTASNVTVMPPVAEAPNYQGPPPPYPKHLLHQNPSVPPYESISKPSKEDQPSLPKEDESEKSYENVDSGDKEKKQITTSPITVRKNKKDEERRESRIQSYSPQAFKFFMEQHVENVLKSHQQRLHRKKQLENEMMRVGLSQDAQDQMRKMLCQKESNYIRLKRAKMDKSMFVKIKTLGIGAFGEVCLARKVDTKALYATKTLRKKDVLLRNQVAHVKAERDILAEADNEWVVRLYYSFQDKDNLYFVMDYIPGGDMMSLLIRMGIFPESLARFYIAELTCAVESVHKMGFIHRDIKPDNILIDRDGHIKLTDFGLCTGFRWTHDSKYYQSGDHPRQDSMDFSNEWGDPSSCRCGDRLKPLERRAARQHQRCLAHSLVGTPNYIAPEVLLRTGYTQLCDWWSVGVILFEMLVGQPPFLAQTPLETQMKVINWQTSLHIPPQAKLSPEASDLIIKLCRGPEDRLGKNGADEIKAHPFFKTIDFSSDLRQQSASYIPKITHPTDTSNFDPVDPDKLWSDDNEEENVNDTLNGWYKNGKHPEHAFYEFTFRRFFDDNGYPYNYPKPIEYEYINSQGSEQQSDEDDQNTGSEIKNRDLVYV
Human LATS1 kinase domain protein, sequence (Q7L9L4 whole entry partner, looked up, the tested form may be a part): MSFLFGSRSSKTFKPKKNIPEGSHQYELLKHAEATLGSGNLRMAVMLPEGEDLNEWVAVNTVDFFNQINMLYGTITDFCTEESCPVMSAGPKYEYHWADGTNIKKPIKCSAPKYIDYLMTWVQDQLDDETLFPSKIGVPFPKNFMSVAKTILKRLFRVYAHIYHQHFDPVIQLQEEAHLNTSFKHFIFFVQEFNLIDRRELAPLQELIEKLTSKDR
LATS1, sequence (O95835 whole entry, looked up): as the sequence (O95835 whole entry, looked up, the tested form may be a part) above
LATS1, sequence (Q7L9L4 whole entry partner, looked up): as the sequence (Q7L9L4 whole entry partner, looked up, the tested form may be a part) above

In assay [1], `CN(C)CCC(C)(C)Nc1nc(-c2ccnc(N)c2)nc2cnccc12` [Example 334, N^3-(2-(2-aminopyridin-4-yl)pyrido[3,4-d]pyrimidin-4-yl)-N^1,N^1,3-trimethylbutane-1,3-diamine] gave a pIC50 of 8.21.
Regarding `CC1(C)CN(c2cc(-c3ccncc3)nc3cnccc23)CCN1` [Example 298, 4-(3,3-dimethylpiperazin-1-yl)-2-(pyridin-4-yl)-1,7-naphthyridine], the pIC50 in assay [1] is 7.23.
On to `c1cc(-c2cc(NC3COC3)c3ccncc3n2)ccn1` [Example 296, N-(oxetan-3-yl)-2-(pyridin-4-yl)-1,7-naphthyridin-4-amine], for which the pIC50 in assay [1] was 6.68.
Turning to `CC(C)(C)OC(=O)NCCNc1nc(-c2ccncc2)nc2cnccc12` [Example 311, tert-butyl (2-((2-(pyridin-4-yl)pyrido[3,4-d]pyrimidin-4-yl)amino)ethyl)carbamate], the negative logarithm of the IC50 (pIC50) in assay [1] was 5.99.
In assay [1], `FC(F)(F)[C@H]1CN(c2cc(-c3ccncc3)nc3cnccc23)CCN1` [Example 305, (R)-2-(pyridin-4-yl)-4-(3-(trifluoromethyl)piperazin-1-yl)-1,7-naphthyridine] had a negative-log IC50 (pIC50) of 6.18.
The same measure, in the same setting: the same measure for `CC1CCCCN1c1cc(-c2ccncc2)nc2cnccc12` (stereo not shown) [Example 293, 4-(2-methylpiperidin-1-yl)-2-(pyridin-4-yl)-1,7-naphthyridine]: 7.80; for `CC(C)(CNC(=O)OC(C)(C)C)CNc1nc(-c2ccncc2)nc2cnccc12` [Example 316, tert-butyl (2,2-dimethyl-3-((2-(pyridin-4-yl)pyrido[3,4-d]pyrimidin-4-yl)amino)propyl)carbamate]: 7.37.
In the case of `c1cc(-c2cc(N3CCNCC3)c3ccncc3n2)ccn1` [Example 292, 4-(piperazin-1-yl)-2-(pyridin-4-yl)-1,7-naphthyridine], in assay [1], the negative logarithm of the IC50 (pIC50) is 7.36.
Same read-out and setting: in the case of `CC(C)(CCNC(=O)OC(C)(C)C)Nc1nc(-c2ccncc2)nc2cnccc12` [Example 328, tert-butyl (3-methyl-3-((2-(pyridin-4-yl)pyrido[3,4-d]pyrimidin-4-yl)amino)butyl)carbamate] it was 7.72.
For `CN(C)CC(C)(C)CNc1nc(-c2ccncc2)nc2cnccc12` [Example 323, N^1,N^1,2,2-tetramethyl-N^3-(2-(pyridin-4-yl)pyrido[3,4-d]pyrimidin-4-yl)propane-1,3-diamine], the pIC50 in assay [1] was 8.35.
As for `CCN(CC)CCC(C)(C)Nc1nc(-c2ccncc2)nc2cnccc12` [Example 330, N,N-diethyl-3-methyl-N^3-(2-(pyridin-4-yl)pyrido[3,4-d]pyrimidin-4-yl)butane-1,3-diamine], the pIC50 in assay [1] is 8.51.
The compound `CC(C)(CNc1nc(-c2ccncc2)nc2cnccc12)NC(=O)OC(C)(C)C` [Example 310, tert-butyl (2-methyl-1-((2-(pyridin-4-yl)pyrido[3,4-d]pyrimidin-4-yl)amino)propan-2-yl)carbamate] had a negative-log IC50 (pIC50) in assay [1] of 6.79.
Still for that read-out and setting: in the case of `C[C@](O)(CNc1cc(-c2ccncc2)nc2cnccc12)C(F)(F)F` [Example 327, (S)-1,1,1-trifluoro-2-methyl-3-((2-(pyridin-4-yl)-1,7-naphthyridin-4-yl)amino)propan-2-ol] it was 6.90; in that of `CC1(C)CN(c2cc(-c3ccncc3)nc3cnccc23)CCO1` [Example 299, 2,2-dimethyl-4-(2-(pyridin-4-yl)-1,7-naphthyridin-4-yl)morpholine], 7.01; in that of `FC(F)(F)[C@@H]1CN(c2nc(-c3ccncc3)nc3cnccc23)CCN1` [Example 321, (S)-2-(pyridin-4-yl)-4-(3-(trifluoromethyl)piperazin-1-yl)pyrido[3,4-d]pyrimidine], 8.42.
For `CN(C)CCC(C)(C)Nc1nc(-c2c[nH]nc2C(F)(F)F)nc2cnccc12` [Example 333, N^1,N,3-trimethyl-N^3-(2-(3-(trifluoromethyl)-1H-pyrazol-4-yl)pyrido[3,4-d]pyrimidin-4-yl)butane-1,3-diamine], the pIC50 in assay [1] was 8.64.
The same measure, in the same setting: the same measure for `CC(C)(C)Nc1nc(-c2nonc2N)nc2cnccc12` [Example 324, 4-(4-(tert-butylamino)pyrido[3,4-d]pyrimidin-2-yl)-1,2,5-oxadiazol-3-amine]: 7.98; for `CC(C)(Nc1nc(-c2ccncc2)nc2cnccc12)C(N)=O` [Example 326, 2-methyl-2-((2-(pyridin-4-yl)pyrido[3,4-d]pyrimidin-4-yl)amino)propanamide]: 7.24.
Same read-out and setting: the same measure for `CN(C)C(C)(C)CNc1cc(-c2ccncc2)nc2cnccc12` [Example 302, N^2,N^2,2-trimethyl-N^1-(2-(pyridin-4-yl)-1,7-naphthyridin-4-yl)propane-1,2-diamine]: 7.23; for `Cc1n[nH]c(C)c1-c1nc(NC(C)(C)CCN(C)C)c2ccncc2n1` [Example 332, N^3-(2-(3,5-dimethyl-1H-pyrazol-4-yl)pyrido[3,4-d]pyrimidin-4-yl)-N^1,N^1,3-trimethylbutane-1,3-diamine]: 8.12; for `CN1CCN(c2cc(-c3ccncc3)nc3cnccc23)CC1` [Example 291, 4-(4-methylpiperazin-1-yl)-2-(pyridin-4-yl)-1,7-naphthyridine]: 6.34.
For the compound `CN(C)C(C)(C)CNc1nc(-c2ccncc2)nc2cnccc12` [Example 325, N^2,N^2,2-trimethyl-N^1-(2-(pyridin-4-yl)pyrido[3,4-d]pyrimidin-4-yl)propane-1,2-diamine], in assay [1], the pIC50 is 8.43.
As for `CN(C)CC(C)(C)CN(C)c1nc(-c2ccncc2)nc2cnccc12` [Example 329, N^1,N^1,N^3,2,2-pentamethyl-N^3-(2-(pyridin-4-yl)pyrido[3,4-d]pyrimidin-4-yl)propane-1,3-diamine], in assay [1], the pIC50 was 8.52.
Regarding `CN(C)CCC(C)(C)Nc1nc(-c2ccnc(F)c2)nc2cnccc12` [Example 331, N^3-(2-(2-fluoropyridin-4-yl)pyrido[3,4-d]pyrimidin-4-yl)-N^1,N^1,3-trimethylbutane-1,3-diamine], the pIC50 in assay [1] was 7.98.
In assay [2], `CC(C)(O)C(C)(Nc1nc(-c2ccncc2)nc2cnccc12)C(F)(F)F` (stereo not shown) [Example 50, 4,4,4-trifluoro-2,3-dimethyl-3-{[2-(pyridin-4-yl)pyrido[3,4-d]pyrimidin-4-yl]amino}butan-2-ol] showed a pEC50 of 5.42. In addition, the pIC50 in assay [3] was < 5.00; in assay [4], 4.77; in assay [5], 8.30.
The compound `CC(C)(C)Nc1cc(-c2ccncc2F)nc2cnccc12` [Example 280, N-tert-butyl-2-(3-fluoropyridin-4-yl)-1,7-naphthyridin-4-amine] showed a pEC50 in assay [2] of 5.56. Also, the pIC50 in assay [3] is 5.42; in assay [4], 6.32; in assay [5], 8.52.
Taken in the same sequence, the figures for `CC(C)(O)CC(C)(C)Nc1cc(-c2ccncc2)nc2cnccc12` [Example 263, 2,4-dimethyl-4-{[2-(pyridin-4-yl)-1,7-naphthyridin-4-yl]amino}pentan-2-ol] were 5.22, < 5.00, 5.49 and 8.15.
The matching figures for `CCN(c1nc(-c2ccncc2)nc2cnccc12)C(C)C` [Example 3, N-ethyl-N-(propan-2-yl)-2-(pyridin-4-yl)pyrido[3,4-d]pyrimidin-4-amine]: 6.19, 6.00, 6.07 and 9.00.

By pIC50 is commonly meant the negative decadic logarithm of the IC50, by convention in mol/L. Read a high pIC50 as a small IC50. For orientation: pEC50 means the EC50 on a negative log10 scale, so that one unit is a factor of ten. Read a high pEC50 as a low EC50.
